Data reported in US9187507B2 (Institute of Pharmacology and Toxicology Academy of …, priority 2009, dated 2015).
Where two headings read alike, the source gives them in different places.

Tests used:
[1] = human body, after MCC-478; cited from earlier work
[2] = test system: HBV DNA; test: Test of in vitro activity against HBV: inhibition of HBV DNA in Hep G 2.2.15 cells by quantitative real-time fluorescent PCR; format: cell-based; conditions: Hepatitis B virus, HepG2.2.15
Protocol: By an in vitro test method of using Hep G 2.2.15 cells, the inhibition effects and cytotoxicity of the desired compounds to HBV DNA were measured.
By using quantitative and real-time fluorescent PCR method, the inhibition effects of the desired compounds to HBV DNA were measured: Hep G 2.2.15 cells were cultured in a DMEM culture medium containing 10% bovine calf serum, incubated in a 5% CO2 incubator, then the cells were inoculated in 96-well plate, cell count 3×10^4, continuously cultured, when the cell density reached about 80%, the used culture medium was discarded, and new culture media with different drug concentrations were added, in which 3 parallel wells were set; the culture media were exchanged every three days. On the 10th day of using drug, 100 μl of supernatant was taken and measured to determine HBV DNA content by quantitative PCR method, calculate 50% inhibition concentration, i.e., IC50 value.

[3] = Cytotoxicity by MTT method; format: cell-based; conditions: human; Hep G2 cells; MTT on the 3rd day of adding drugs; absorption at 540 nm
Protocol: The cytotoxicity of the desired compounds were measured by MTT method: Hep G2 cells were cultured in a DMEM culture medium containing 10% bovine calf serum, incubated in a 5% CO2 incubator, then the cells were inoculated in 96-well plate, cell count 5×10^4, continuously cultured for 3 days, added with new culture media with different drug concentrations, in which 3 parallel wells were set; on the 3rd day of adding drugs, MTT was added to 7.5 mg/ml, the culture was kept for further 2 h, the supernatant was discarded, isopropanol containing 10% […] was added, 120 μl/well, then added 0.4 μl/well again, enzyme-linked meter was used to measure the absorption at 540 nm, calculate 50% inhibition concentration, i.e., CC50 value.

[4] = test system: HBV; conditions: anti-HBV, cited from earlier work
[5] = test system: other retro viruses such as HIV and HSV; conditions: cited from earlier work
[6] = test system: HBV strains with resistance to lamivudine; conditions: cited from earlier work
[7] = test system: hepatitis B virus; conditions: clinical; cited from earlier work

Molecule | IC50 [2] | CC50 at 3 days [3] | further results
COc1ccc(Sc2nc(N)nc3c2ncn3CCOCP(=O)(O)O)cc1 [Compound 602076, 2-amino-6-(4-methoxyphenylthio)-9-(2-phosphonomethoxyethyl)-purine] |  |  | concentration of the free acid 602076 in blood relative to that of the monoester 602074 [1]: 1/10
COc1ccc(Sc2nc(N)nc3c2ncn3CCOCP(=O)(OCOC(=O)C(C)C)OCOC(=O)C(C)C)cc1 [Compound I2] | 0.02 µM | > 1000 µM | 
COc1ccc(Sc2nc(N)nc3c2ncn3CCOCP(=O)(OCOC(=O)C(C)(C)C)OCOC(=O)C(C)(C)C)cc1 [Compound I3] | 0.015 µM | > 1000 µM | 
COc1ccc(Sc2nc(N)nc3c2ncn3CCOCP(=O)(OCOC(=O)C2CCCCC2)OCOC(=O)C2CCCCC2)cc1 [Compound I4] | 0.012 µM | > 1000 µM | 
COc1ccc(Sc2nc(N)nc3c2ncn3C[C@@H](C)OCP(=O)(OCOC(=O)C(C)(C)C)OCOC(=O)C(C)(C)C)cc1 [Compound I5] | 0.006 µM | > 1000 µM | 
COc1ccc(Sc2nc(N)nc3c2ncn3CCOCP(=O)(OCOC(=O)OC(C)C)OCOC(=O)OC(C)C)cc1 [Compound I8] | 0.005 µM | > 1000 µM | 
COc1ccc(Sc2nc(N)nc3c2ncn3CCOCP(=O)(OCOC(=O)OCC(C)C)OCOC(=O)OCC(C)C)cc1 [Compound I9] | 0.021 µM | > 1000 µM | 
COc1ccc(Sc2nc(N)nc3c2ncn3CCOCP(=O)(OCOC(=O)OC2CCCCC2)OCOC(=O)OC2CCCCC2)cc1 [Compound I12] | 0.011 µM | > 1000 µM | 
COc1ccc(Sc2nc(N)nc3c2ncn3C[C@@H](C)OCP(=O)(OCOC(=O)OC(C)C)OCOC(=O)OC(C)C)cc1 [Compound I13] | 0.054 µM | > 1000 µM | 
COc1ccc(Sc2nc(N)nc3c2ncn3CCOCP(=O)(OCC(F)(F)F)OCC(F)(F)F)cc1 [MCC-478] |  | > 1000 µM | IC50 ([2]; Hep G 2.2.15 cells, HBV DNA content in supernatant by quantitative PCR on the 10th day of using drug, read-out: IC50): 0.016 µM; in vitro activity, times that of adefovir ([4]; relative to adefovir): 10-20 times; in vitro activity, times that of lamivudine ([4]; relative to lamivudine): 20-80 times; activity against other retro viruses such as HIV and HSV [5]: no activity; inhibition effects on HBV strains with resistance to lamivudine [6]: has inhibition effects
interferon |  |  | effective rate of treatment [7]: 30-50%
